Measurements as given in US12319655B2, “RAF kinase inhibitors and methods of use thereof” (Deciphera Pharmaceuticals, LLC, priority 2021, dated 2025).
Like-named read-outs stand apart in the source and are kept apart here.

How the values were obtained:
[1] = target: B-Raf kinase (SEQ. ID NO: 2) (Homo sapiens (Human), UniProt P15056); experiment: Biochemical Assay for B-Raf (1); details: Table J
Outline: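 IC50 derived by four-parameter sigmoidal fit of percent inhibition, normalised to uninhibited and reference-inhibitor controls, using reaction rates over 4–5 h. Coupled spectrophotometric readout (NADH loss at 340 nm, 6 h, 30° C.); 1 mM ATP, 30.1 nM MEK, 0.13 nM B-Raf, pH 7.5 Tris buffer, 1% DMSO.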

[2] = system: A375 cells; experiment: A375 Cell Proliferation Assay (1); assay type: cell-based; details: Homo sapiens, A-375
Outline: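 Resazurin fluorescence (excitation 540 nm, emission 600 nm, after a further 5-6 h) gave IC50s from triplicate compound dilution series.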

[3] = system: H2405 cells; experiment: H2405 Cell Proliferation Assay (1); assay type: cell-based; details: Homo sapiens, NCI-H2405
Outline: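 Viability was read by resazurin reduction (ex 540 nm, em 600 nm; 5-6 h with 40 μL of 440 μM stock) after 67-72 h compound exposure at 37 °C.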

[4] = system: WM3928 cells; experiment: WM3928 Cell Proliferation Assay (1); assay type: cell-based
Outline: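 IC50 was derived from resazurin fluorescence (ex 540, em 600 nm) after a 6–7 h dye incubation. Before that, cells had 67–72 h of compound exposure at 37 °C, 5% CO2.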

[5] = assay version (1), read-out: BRAF (1) IC50
[6] = biochemical assay (1), read-out: BRAF (1)

B-Raf kinase (SEQ. ID NO: 2), sequence (P15056 416-766): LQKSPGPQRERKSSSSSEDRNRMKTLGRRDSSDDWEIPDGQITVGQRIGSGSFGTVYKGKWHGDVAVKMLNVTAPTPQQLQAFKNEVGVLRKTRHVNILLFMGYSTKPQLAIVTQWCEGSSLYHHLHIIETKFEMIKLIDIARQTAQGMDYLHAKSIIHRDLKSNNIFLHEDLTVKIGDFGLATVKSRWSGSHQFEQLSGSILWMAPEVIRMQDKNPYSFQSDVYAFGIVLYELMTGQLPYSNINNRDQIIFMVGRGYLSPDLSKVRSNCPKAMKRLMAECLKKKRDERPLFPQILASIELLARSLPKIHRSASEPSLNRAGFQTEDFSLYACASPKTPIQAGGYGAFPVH

Row | Structure (SMILES) | IC50 [1, 5] [nM] | IC50 [2] [nM] | IC50 [3] [nM] | IC50 [4] [nM] | IC50 [1, 6] [nM]
1 | CC(=O)Nc1cc(-c2cc(-c3cc(NC(=O)c4ccnc(C(F)(F)F)c4)ccc3C)nc(N(C)C)n2)ccn1 [Example 41, N-(3-(6-(2-acetamidopyridin-4-yl)-2-(dimethylamino)pyrimidin-4-yl)-4-methylphenyl)-2-(trifluoromethyl)isonicotinamide] | ≤ 100 | 100 to 500 | ≤ 100 | ≤ 100 | 
2 | CNC(=O)c1cc(-c2cc(-c3cc(NC(=O)c4ccnc(C(F)(F)F)c4)cnc3C)ccn2)ccn1 [Example 42] | 100 to 500 | 1000 to 10000 | 500 to 1000 | 1000 to 10000 | 
3 | CNC(=O)c1cc(-c2cc(-c3cc(NC(=O)c4ccnc(C(F)F)c4)ccc3C)ccn2)ccn1 [Example 48] | ≤ 100 | 500 to 1000 | 100 to 500 | 500 to 1000 | 
4 | CNC(=O)c1cc(-c2cc(-c3cc(NC(=O)c4ccnc(C(C)(C)C#N)c4)ccc3C)ccn2)ccn1 [Example 50] | ≤ 100 | ≤ 100 | ≤ 100 | ≤ 100 | 
5 | CNC(=O)c1cc(-c2cc(-c3cc(NC(=O)c4cccc(C(F)(F)F)c4)cnc3C)ccn2)ccn1 [Example 52] | 100 to 500 | 100 to 500 | ≤ 100 | 100 to 500 | 
6 | Cc1ccc(NC(=O)c2ccnc(C(F)(F)F)c2)cc1-c1ccnc(-c2ccnc(NC(=O)C3CC3)c2)c1 [Example 54] | ≤ 100 | 100 to 500 | ≤ 100 | ≤ 100 | 
7 | Cc1ccc(NC(=O)c2ccnc(C(C)(C)C#N)c2)cc1-c1ccnc(-c2ccnc(N)c2)c1 [Example 56] | ≤ 100 | 100 to 500 | 500 to 1000 | 500 to 1000 | 
8 | CCOc1ncc(-c2cc(NC(=O)c3ccnc(C(F)(F)F)c3)ccc2C)cc1-c1ccnc(NC(C)=O)c1 [Example 68] | ≤ 100 | ≤ 100 | 100 to 500 | ≤ 100 | 
9 | CCOc1ncc(-c2cc(NC(=O)c3ccnc(C(F)(F)F)c3)ccc2C)cc1-c1ccnc(C(=O)NC)c1 [Example 69] | 100 to 500 | 100 to 500 | 100 to 500 | ≤ 100 | 
10 | CCOc1ncc(-c2cc(NC(=O)c3ccnc(C(F)(F)F)c3)ccc2C)cc1-c1ccnc(NC(=O)C2CC2)c1 [Example 71] | 100 to 500 | 100 to 500 | 100 to 500 | ≤ 100 | 
11 | CNC(=O)c1cc(-c2cc(-c3cc(C(=O)Nc4ccnc(C(C)(C)C#N)c4)ccc3C)ccn2)ccn1 [Example 74] | 500 to 1000 | 100 to 500 | 100 to 500 | 100 to 500 | 
12 | Cc1ccc(NC(=O)c2ccnc(C(C)(C)C#N)c2)cc1-c1cccc(-c2cc(NC(=O)C3CC3)ncn2)c1 [Example 77] | ≤ 100 | ≤ 100 | ≤ 100 | ≤ 100 | 
13 | Cc1ccc(NC(=O)c2ccnc(C(F)(F)F)c2)cc1-c1cccc(-c2cc(NC(=O)C3CC3)ncn2)c1 [Example 80] | ≤ 100 | ≤ 100 | ≤ 100 | 100 to 500 | 
14 | Cc1ccc(NC(=O)c2ccnc(C(C)(C)C#N)c2)cc1-c1ccnc(-c2ccnc(N)c2)n1 [Example 82] | ≤ 100 | 500 to 1000 | 500 to 1000 | 1000 to 10000 | 
15 | CNC(=O)c1cc(-c2cc(-c3cc(NC(=O)c4ccnc(C(F)(F)F)c4)ccc3C)ncn2)ccn1 [Example 85] | ≤ 100 | 1000 to 10000 | 100 to 500 | 1000 to 10000 | 
16 | CNC(=O)c1cc(-c2cncc(-c3cc(NC(=O)c4ccnc(C(C)(C)C#N)c4)ccc3C)n2)ccn1 [Example 86] | 100 to 500 | ≤ 100 | ≤ 100 | ≤ 100 | 
17 | COC(=O)Nc1cc(-c2cnnc(-c3cc(NC(=O)c4ccnc(C(C)(C)F)c4)ccc3C)c2)ccn1 [Example 375] |  | 100 to 500 | 100 to 500 | ≤ 100 | ≤ 100

Row | Structure (SMILES) | IC50 [1, 5] [nM] | IC50 [2] [nM] | IC50 [3] [nM] | IC50 [4] [nM] | IC50 [1, 6] [nM]
18 | CNC(=O)c1cc(-c2ccnc(-c3cc(NC(=O)c4ccnc(C(C)(C)C#N)c4)ccc3C)c2)ccn1 [Example 376] |  | ≤ 100 | 100 to 500 | 100 to 500 | 100 to 500
19 | Cc1ccc(NC(=O)c2cc(C3CC3)n(C)n2)cc1-c1cc(-c2ccnc(NC(=O)C3CC3)c2)cnn1 [Example 377] |  | 100 to 500 | 100 to 500 | ≤ 100 | ≤ 100
20 | CNC(=O)c1cc(-c2ccnc(-c3cc(NC(=O)c4ccnc(C(C)(C)F)c4)ccc3C)c2)ccn1 [Example 378] |  | ≤ 100 | 100 to 500 | 100 to 500 | 100 to 500
21 | CNC(=O)c1cc(-c2cncc(-c3cc(NC(=O)c4ccnc(C(C)(C)F)c4)ccc3C)c2)ncn1 [Example 379] |  | ≤ 100 | 100 to 500 | ≤ 100 | 100 to 500
22 | Cc1ccc(NC(=O)c2ccnc(C(C)(C)F)c2)cc1-c1cncc(-c2ccnc(C(N)=O)c2)c1 [Example 380] |  | 100 to 500 | 100 to 500 | ≤ 100 | ≤ 100
23 | COC(=O)Nc1cc(-c2cncc(-c3cc(NC(=O)c4ccnc(C(C)(C)F)c4)c(F)cc3C)c2)ccn1 [Example 384] |  | ≤ 100 | 100 to 500 | ≤ 100 | ≤ 100
24 | Cc1ncc(NC(=O)c2ccnc(C(C)(C)C#N)c2)cc1-c1cccc(-c2ncnn3cccc23)c1 [Example 385] |  | 1000 to 10000 | 1000 to 10000 | 1000 to 10000 | 100 to 500
25 | COC(=O)Nc1cc(-c2cc(-c3cc(NC(=O)c4ccnc(C(C)(C)F)c4)c(F)cc3C)cc(C)n2)ccn1 [Example 386] |  | 100 to 500 | 500 to 1000 | 100 to 500 | 100 to 500
26 | Cc1ccc(NC(=O)[C@H]2CCO[C@@H](C(C)C)C2)cc1-c1cc(-c2ccnc(NC(=O)C3CC3)c2)cnn1 [Example 388] |  | 1000 to 10000 | 1000 to 10000 | 500 to 1000 | ≤ 100
27 | Cc1ccc(NC(=O)[C@H]2CCO[C@H](C(C)C)C2)cc1-c1cc(-c2ccnc(NC(=O)C3CC3)c2)cnn1 [Example 389] |  | 1000 to 10000 | 1000 to 10000 | 500 to 1000 | ≤ 100
28 | COC(=O)Nc1cc(-c2nccc(-c3cc(NC(=O)c4ccnc(C(C)(C)F)c4)ccc3C)n2)ccn1 [Example 391] |  | ≤ 100 | 500 to 1000 | ≤ 100 | ≤ 100
29 | CNC(=O)c1cc(-c2ccnc(-c3cc(NC(=O)CCC4(F)CC4)ccc3C)c2)ccn1 [Example 392] |  | 1000 to 10000 | 1000 to 10000 | 1000 to 10000 | 500 to 1000
30 | CNC(=O)c1cc(-c2cncc(-c3cc(NC(=O)c4ccnc(C5(C#N)CC5)c4)ccc3C)c2)ncn1 [Example 393] |  | 100 to 500 | 100 to 500 | ≤ 100 | ≤ 100
31 | Cc1ccc(NC(=O)c2ccnc(C(C)(C)F)c2)cc1-c1cncc(-c2cc(NC(=O)C3CC3)ncn2)c1 [Example 394] |  | ≤ 100 | ≤ 100 | ≤ 100 | ≤ 100
32 | Cc1ccc(NC(=O)c2ccnc(C3(C#N)CC3)c2)cc1-c1cncc(-c2cc(NC(=O)C3CC3)ncn2)c1 [Example 395] |  | ≤ 100 | ≤ 100 | ≤ 100 | ≤ 100
33 | Cc1ccc(NC(=O)c2ccnc(C3CC3)c2)cc1-c1cncc(-c2cc(NC(=O)C3CC3)ncn2)c1 [Example 396] |  | ≤ 100 | ≤ 100 | ≤ 100 | ≤ 100
